Consider 11 molecules from EPA's ToxValDB 9.5.

By LD50 is commonly meant the dose at which mortality reaches 50%. One may read the LOAEL as the lowest tested level that showed an adverse finding. In general, NOAEL refers to the highest dose or exposure tested at which no adverse effect was seen.

One series concerns Cavia porcellus. The following applies: acute; Inhalation.
A further series concerns Oryctolagus sp. The following applies: for LD50: acute.
Series [1] has as its system Rattus norvegicus.
Series [2] concerns Canidae. The following applies: chronic, oral, M/F, Dog Other.
Series [3] has as its system Canidae. The conditions noted are these: chronic, oral, Dog Other.
For series [4], the system named is Mus musculus. The conditions noted are these: acute; oral; CD1.
Series [5] has as its system Rattus norvegicus. The following applies: chronic, inhalation, M/F.
In series [6] the test system is Rattus norvegicus. The conditions noted are these: inhalation, intermittent.
The subject of series [7] is Rattus norvegicus. In words: LC100; higher = less toxic. The conditions noted are these: acute; inhalation; Wistar.
The test system of series [8] is Rattus norvegicus. The following applies: oral, drinking water, M/F.
Series [9] concerns Mus musculus. The following applies: subchronic; duration: 60 days; oral; gavage; Testes: Decreased sperm counts + Testes: Seminiferous tubule degeneration.
The test system of series [10] is Mus musculus. The following applies: subchronic; oral; M/F; no effects.
The test system of series [11] is Mus musculus. The following applies: subchronic; duration: 90 days; oral; gavage; M/F; CD-10 (ICR) BR; Whole Body Effects.
Series [12] concerns Mus musculus. The conditions noted are these: subchronic; duration: 13 weeks; oral; gavage; M/F; CD1; hepatic.
Series [13] deals with Homo sapiens. The conditions noted are these: clinical; duration: 10 weeks; oral; drinking water; Cardiovascular system: Increased blood pressure.
Series [14] relates to Mus musculus. The following applies: uterotrophic, duration: 3 days, Active.
Series [15] relates to Rattus norvegicus. The conditions noted are these: uterotrophic; duration: 3 days; oral; Active.
In series [16] the test system is Homo sapiens. The conditions noted are these: clinical; Induction of resistant enterobacteriaceae.
Series [17] relates to Rattus norvegicus. Put plainly: LD0; higher = less toxic. The conditions noted are these: acute; dermal; semiocclusive; Sprague-Dawley.
[18] abbreviates: acute, inhalation, Sprague-Dawley.
[19] abbreviates: reproduction developmental, duration: 19 days, oral, gavage, Sprague-Dawley.
Where [20] appears, read: short-term, inhalation, New Zealand.
The mark [21] stands for this setting: short-term, inhalation, M, Sprague-Dawley.
The mark [22] stands for this setting: duration: 12 months, diet, increased relative liver weight in male dogs.
Where [23] appears, read: short-term, duration: 8 days, oral, gavage, Sprague-Dawley.

Converted amounts (≈) assume the structure as drawn. “And” between values parts separate entries of the source, which are not always exact repeats. Equal values may be shown once.

With `CC(C)(N=C=O)c1cccc(C(C)(C)N=C=O)c1` [1,3-Bis(2-isocyanato-2-propyl)benzene], the figures for the LC50 in the series with Cavia porcellus and with Rattus norvegicus [1] (setting [18]) were 0.24 mg/L (≈ 0.982 µM) and 0.027 mg/L (≈ 0.111 µM), respectively. For the same molecule, the median lethal dose (LD50) in the series with Oryctolagus sp. (dermal, occlusive, New Zealand) was over 2000 mg/kg; with Rattus norvegicus [1] (acute, oral, gavage, Sprague-Dawley), over 5000 mg/kg. Moreover, the LOAEL with Rattus norvegicus [1] (setting [19]) came to 250 mg/kg-day. The NOAEL with Rattus norvegicus [1] (setting [19]) worked out at 150 mg/kg-day; in the series with Rattus norvegicus [1] (reproduction developmental, duration: 19 days, oral, gavage, Sprague-Dawley, generation: F0), 150 mg/kg-day; in the series on Rattus norvegicus [1] (reproduction developmental, duration: 19 days, oral, gavage, Sprague-Dawley, generation: F1) it was 250 mg/kg-day; with Rattus norvegicus [1] (reproduction developmental, oral, gavage, F, Sprague-Dawley) it was 150 mg/kg-day; in the series on Rattus norvegicus [1] (reproduction developmental, oral, gavage, Sprague-Dawley, generation: F1), 250 mg/kg-day; in the series with Rattus norvegicus [1] (short-term, duration: 4 weeks, Inhalation, Sprague-Dawley), 1.5 mg/m3.

In the series with Canidae [2] (histopathological liver), `CC(Oc1cc(Cl)c(Cl)cc1Cl)C(=O)O` (stereo not drawn) [2-(2,4,5-Trichlorophenoxy)propionic acid] had an LOAEL of 2.5 mg/kg-day and an NOEL of 0.75 mg/kg-day. Moreover, in the series on Canidae [3] (duration: 2 years, diet, Liver: Histopathology), the NOEL was found to be 0.75 mg/kg-day.

On to `CC(C)[N+](=O)[O-]` [2-Nitropropane], for which the median lethal dose (LD50) in the series on Mus musculus [4] is 393 mg/kg and ≥ 346 mg/kg and ≤ 446 mg/kg; in the series on Oryctolagus sp. (dermal), over 200 mg/kg; in the series with Oryctolagus sp. (dermal, New Zealand) it was over 2000 mg/kg; in the series on Oryctolagus sp. (oral, gavage), ≥ 500 mg/kg and ≤ 750 mg/kg. In addition, the LOAEL in the series on Oryctolagus sp. (setting [20]) turned out to be 754 mg/m3; in the series on Rattus norvegicus [1] (setting [21]), 754 mg/m3; in the series with Rattus norvegicus [5] (liver focal vacuolization and nodules), 78 mg/m3; in the series with Rattus norvegicus [6] (chronic, duration: 22 months, Liver: Lesions) it was 78 mg/m3. For the same molecule, the NOAEL in the series on Oryctolagus sp. (setting [20]) was 98.4 mg/m3; in the series on Rattus norvegicus [1] (developmental, duration: 15 days, injection, Intraperitoneal, Sprague-Dawley) it was under 170 mg/kg-day; with Rattus norvegicus [1] (reproduction developmental, duration: 15 days, injection, Intraperitoneal, F, Sprague-Dawley) it was 170 mg/kg-day; with Rattus norvegicus [1] (setting [21]), 98.4 mg/m3. Moreover, the LC50 is 2620 mg/m3 and 1460 mg/m3 in the series on Rattus norvegicus [1] (setting [18]); ≥ 12.1 mg/L and ≤ 14.4 mg/L with Rattus norvegicus [1] (acute, inhalation, Wistar). In addition, the LC100 in the series with Rattus norvegicus [7] is 53600 mg/m3.

`C=CC#N` [Acrylonitrile]: the LOAEL with Rattus norvegicus [5] (duration: 2 years, Degeneration and inflammation of nasal respiratory epithelium + hyperplasia of mucous secreting cells) was 43 mg/m3; in the series on Rattus norvegicus [8] (chronic, duration: 22 months, Spartan Sprague-Dawley, hematological), 0.09 mg/kg-day. Besides, the NOAEL in the series with Mus musculus [9] came to 1 mg/kg-day.

`c1ccc2cc3ccccc3cc2c1` [Anthracene]: the NOEL in the series with Mus musculus [10] and in the series with Mus musculus [11] was 1000 mg/kg-day each time. The NOAEL in the series with Mus musculus [12] came to 1000 mg/kg-day.

Consider `[Ba]` [Barium], for which the NOAEL came to 65 mg/kg-day in the series on Rattus norvegicus [8] (subchronic, duration: 90 days, Fischer 344, renal) and 0.21 mg/kg-day with Homo sapiens [13]. Further, the NOEL with Rattus norvegicus [6] (developmental, duration: 4 months, Fetus: Fetotoxicity) turned out to be 0.8 mg/m3.

As to `O=C(O)c1ccccc1` [Benzoic acid], in the series with Mus musculus [14] (injection, subcutaneous), the LEL worked out at 1 µg/100 g and the “LEL (ug/100 g BW)” value stood at 10.

Regarding `O=C(OCc1ccccc1)c1ccccc1O` [Benzyl salicylate], the values for the LEL with Mus musculus [14] (oral) and in the series on Rattus norvegicus [15] were 11.1 mg/kg-day and 3.7 mg/kg-day, respectively.

As to `CCSC(=O)N(CC(C)C)CC(C)C` [Butylate], in the series with Canidae [2] (setting [22]), the LOAEL stood at 25 mg/kg-day and the NOAEL amounted to 5 mg/kg-day. Moreover, in the series with Canidae [3] (duration: 12 months, capsule, Liver: Increased relative weight), the NOEL is 5 mg/kg-day.

In the series on Homo sapiens [16], `CN(C)[C@@H]1C(=O)C(C(N)=O)=C(O)[C@@]2(O)C(=O)C3=C(O)c4c(O)ccc(Cl)c4[C@@](C)(O)[C@H]3C[C@@H]12` [Chlortetracycline] had an LOEL of 20 mg/day and an NOEL of 2 mg/day.

Consider `CC(C)C(C)(C)C(C)(C)C(C)(C)SSSSSC(C)(C)C(C)(C)C(C)(C)C(C)C` [Di-tert-Dodecyl pentasulfide], for which the NOAEL in the series with Rattus norvegicus [1] (developmental, duration: 6 days, oral, gavage, Sprague-Dawley) came out at 1000 mg/kg-day; in the series with Rattus norvegicus [1] (reproduction developmental, duration: 6 days, oral, gavage, F, Sprague-Dawley), 1000 mg/kg-day; in the series on Rattus norvegicus [1] (setting [23]), 1250 mg/kg-day; with Rattus norvegicus [1] (short-term, duration: 28 days, oral, gavage, Sprague-Dawley), 1000 mg/kg-day. The same molecule showed an LOAEL in the series on Rattus norvegicus [1] (setting [23]) of 2500 mg/kg-day. Further, the LD0 in the series with Rattus norvegicus [17] was at least 2000 mg/kg.
